Laboratory results from patent publication US8551537B2, “Rhus verniciflua stokes extract having increased content of active flavonoid compound and method for preparing same” (AZI Company Ltd., priority 2010, dated 2013).

Experiment: Anti-oxidative activity, electron-donating ability by DPPH method
Assay type: biochemical
Procedure: A measurement of anti-oxidative activity was performed by using a method of measuring an electron-donating ability with DPPH method. DPPH is an abbreviation for 1,1-diphenyl-2-picrylhydrazyl, and is widely used a marker for measuring anti-oxidative activity due to its radical. The testing processes were as follows: (1) 2 ml of 0.1 mM DPPH (Sigma, D-9132) dissolved in ethanol was treated to 2 ml of sample dissolved in ethanol; (2) it was mixed for 10 minutes, and then maintained at a dark place for 30 minutes; (3) an absorbance was measured at 520 nm; and (4) the degree of anti-oxidative ability (electron-donating ability, EDA) was calculated. Vitamin E (Fluka, 95420) was used as a positive control group and Formula was as follow.
In the above formula, Cabs denotes an absorbance of a negative control group (in the case of treating only ethanol instead of sample) and Sabs denotes an absorbance of sample.

[1] = Table 1, comparison experiment between fustin and fisetin
[2] = Table 4, DPPH method, absorbance at 520 nm

## O=C1c2ccc(O)cc2O[C@H](c2ccc(O)c(O)c2)[C@H]1O [Fustin, 2,3-Dihydrofisetin]
[1]
  Anti-oxidative Activity (IC50, ug/ml): 33 µg/mL
[2]
  Anti-oxidative Activity (IC50, ug/ml): 32 µg/mL

## O=c1c(O)c(-c2ccc(O)c(O)c2)oc2cc(O)ccc12 [Fisetin, 2-(3,4-dihydroxyphenyl)-3,7-dihydroxy-4H-chromen-4-one-hydrate]
[1]
  Anti-oxidative Activity (IC50, ug/ml): 8 µg/mL
[2]
  Anti-oxidative Activity (IC50, ug/ml): 7.8 µg/mL
Ratio versus fustin
  antioxidative activity of fisetin as compared with that of fustin: at least 5 times
